Results from ChEMBL document CHEMBL1201862, “PubChem BioAssay data set” (2004).
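Tested at 5 concentrations; 48 h exposure; 96-well plates; endpoints linearly interpolated, else capped at highest concentration. GI50: concentration for 50% inhibition of growth.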 Activity calls are given as the source filed them. Cut-off read from the data, not from the text of the source: active = GI50 up to about 1.1 µM and inactive = higher.

Assays:
Test in all cases: DTP human tumour cell line panel, 48 h
DLD-1 = tested on: DLD-1
NCI-H522 = tested on: NCI-H522
M14 = tested on: M14
HOP-18 = tested on: HOP-18
SNB-78 = tested on: SNB-78
NCI-H226 = tested on: NCI-H226
HCC 2998 = tested on: HCC 2998
DMS-273 = tested on: DMS-273
DMS-114 = tested on: DMS-114
ACHN = tested on: ACHN
LXFL 529 = tested on: LXFL 529
SR = tested on: SR
XF498 = tested on: XF498
TK-10 = tested on: TK-10
M19-MEL = tested on: M19-MEL
K562 = tested on: K562
KM-20L2 = tested on: KM-20L2
MCF7 = tested on: MCF7
NCI/ADR-RES = tested on: NCI/ADR-RES
PC-3 = tested on: PC-3

Measured: GI50

O=C(NN1C(=O)CS(=O)(=O)C1c1ccc(C(F)(F)F)cc1)c1ccncc1 (stereo not drawn)
inactive: DLD-1 > 100 µM | NCI-H522 > 100 µM | M14 > 100 µM | HOP-18 > 100 µM | SNB-78 > 100 µM | NCI-H226 > 100 µM | HCC 2998 > 100 µM | DMS-273 > 100 µM | DMS-114 > 100 µM | ACHN > 100 µM | LXFL 529 > 100 µM | SR > 100 µM | XF498 > 100 µM | TK-10 > 100 µM

CC1(C)CCc2ccc(OCCC(=O)O)cc2O1
inactive: DLD-1 > 100 µM | NCI-H522 > 100 µM | M14 > 100 µM | SNB-78 > 100 µM | NCI-H226 > 100 µM | M19-MEL > 100 µM | K562 > 100 µM | DMS-273 > 100 µM | DMS-114 > 100 µM | ACHN > 100 µM | LXFL 529 > 100 µM | SR > 100 µM

COCCOCOC(C)(C)[C@H](CCO)O[Si](c1ccccc1)(c1ccccc1)C(C)(C)C
inactive: DLD-1 9.64 µM | NCI-H522 4.57 µM | M14 9.89 µM | KM-20L2 11.8 µM | HOP-18 17.5 µM | SNB-78 16.3 µM | HCC 2998 4.68 µM | M19-MEL 11.7 µM | ACHN 5.68 µM | LXFL 529 9.95 µM | SR 3.25 µM | XF498 3.18 µM | TK-10 10.9 µM

CN(C)C(CN)CC1=C(CC(CN)N(C)C)CCC1 (stereo not drawn)
inactive: DLD-1 > 100 µM | NCI-H522 > 100 µM | KM-20L2 > 100 µM | HOP-18 > 100 µM | SNB-78 > 100 µM | NCI-H226 > 100 µM | MCF7 > 100 µM | HCC 2998 > 100 µM | M19-MEL > 100 µM | K562 > 100 µM | DMS-273 > 100 µM | DMS-114 > 100 µM | NCI/ADR-RES > 100 µM | XF498 > 100 µM

COc1ccc(-c2c(C#N)c(NC(=S)NC(=O)c3ccccc3)nc3c2CCCC3)cc1OC
inactive: M14 75.7 µM | PC-3 46.2 µM | MCF7 46.3 µM | K562 29.6 µM | ACHN 72.3 µM | NCI/ADR-RES 56.4 µM | SR 59.2 µM | TK-10 45.4 µM

CC1(C)N/C(=C\C=O)C(C)(C)N1O
inactive: M14 > 100 µM | PC-3 > 100 µM | NCI-H226 > 100 µM | MCF7 > 100 µM | HCC 2998 > 100 µM | K562 > 100 µM | ACHN > 100 µM | NCI/ADR-RES > 100 µM | SR > 100 µM | TK-10 > 100 µM

COc1cc2c(cc1OC)C(Cc1c3ccccc3cc3ccccc13)N(C)CC2 (stereo not drawn)
inactive: DLD-1 32.1 µM | NCI-H522 24.4 µM | KM-20L2 15.2 µM | HOP-18 16.5 µM | SNB-78 23.9 µM | NCI-H226 24.1 µM | MCF7 13.7 µM | M19-MEL 21.3 µM | K562 12.5 µM | DMS-273 26 µM | NCI/ADR-RES 24.7 µM | XF498 18.4 µM
